Measured values reported in patent publication US12215085B2 (priority 2019, dated 2025).
Marks after values point to notes of the source that are not given here.

Tests used:
[1] = tested on: mice; test: General pharmacological study in mice; assay type: in vivo
[2] = Acute toxicity LD50, mouse; details: in vivo, po
[3] = tested on: mouse; test: Acute toxicity LD50, mouse; details: clinical daily dosage 8 mg/60 kg human/day, per kilogram body weight
[4] = tested on: rats with common carotid artery occlusion-induced vascular dementia; test: Water maze test, common carotid artery occlusion-induced vascular dementia rats; assay type: in vivo, rat; details: for adopted strategy for reaching the platform (the peripheral type and the random type %) / orientation angle for reaching the platform / speed for reaching the platform / swimming path length for reaching the platform / time for reaching the platform: succinate; for orientation angle for reaching the platform / speed for reaching the platform / swimming path length for reaching the platform / time for reaching the platform: x ± s
Text: A rat blood vessel dementia model was made according to the references [ZHAO Xian-lin, FANG Xiu-bin, LI Dong-pei. Establishment of Vascular Dementia Model in Rats, J Chin Med Univ, 2002, 31 (3): 166-168; WANG Yong-yan, Zhang Bo-li, Editor-in-chief. Modern Chinese Medicine Clinic and Research on Vascular Dementia, People's Medical Publishing House, October 2003, First Version 214]: Chloral hydrate 0.4 g/kg was intraperitoneally injected for anesthetizing rats, and bilateral common carotid arteries were isolated and ligated. The animals were fed for 16 weeks, divided into groups on the last 7 days, and administered. The normal control group and the model group were administrated through the intragastric route with distilled water by 0.5 ml/100 g, the positive control group was administrated through the intragastric route with donepezil hydrochloride by 1.75 mg/kg (equivalent to 3.85 times the clinical daily dosage of 5 mg/70 kg), the low, medium and high-dose groups of Crystal Form A of octahydroaminoacridine succinate were administrated through the intragastric route with Crystal Form A of octahydroaminoacridine succinate by 0.7, 1.4 and 2.8 mg/kg (equivalent to 0.96, 1.92 and 3.85 times the clinical daily dosage of 8 mg/70 kg). The water maze test and the step-down test were carried out after continuous administration for 7 days, and the administration was continued during the test period. The water maze test was continuously performed for 7 days, in the first 6 days, in four different water entry points of quadrants 1, 2, 3 and 4, the time, the swimming path length, the orientation angle and the average speed of the rat reaching the platform were measured, meanwhile, the strategy for reaching the platform adopted by rats was observed, on the 7th day, the platform was removed, the number of rats crossing the platform in 2 minutes, the residence time in the platform area, the residence time in the platform quadrants, the percentage of the swimming path length in the platform area quadrants to the total swimming path length, the average speed and the orientation angle were measured. After the water maze test was finished, the step-down test was performed, and the number of electric shocks (or called as the error number) received by each rat within 5 minutes was recorded as the learning performance. The test was performed again after 24 hours, namely, the memory retention test, and the latent period for stepping-down the platform for the first time and the error number in five minutes were recorded. After the step-down test was finished, the brain was taken quickly for pathological examination, and the pathological changes of the hippocampus and the cortex were observed.

[5] = Day 1, 0.7 mg/kg intragastric, 0.7 mg/kg
[6] = Day 1, 1.4 mg/kg intragastric, 1.4 mg/kg
[7] = Day 1, 2.8 mg/kg intragastric, 2.8 mg/kg
[8] = Day 2, 0.7 mg/kg intragastric, 0.7 mg/kg
[9] = Day 2, 1.4 mg/kg intragastric, 1.4 mg/kg
[10] = Day 2, 2.8 mg/kg intragastric, 2.8 mg/kg
[11] = Day 3, 0.7 mg/kg intragastric, 0.7 mg/kg
[12] = Day 3, 1.4 mg/kg intragastric, 1.4 mg/kg
[13] = Day 3, 2.8 mg/kg intragastric, 2.8 mg/kg
[14] = Day 4, 0.7 mg/kg intragastric, 0.7 mg/kg

Compound: Nc1c2c(nc3c1CCCC3)CCCC2.O=C(O)CCC(=O)O [Crystal Form A, 9-amino-1,2,3,4,5,6,7,8-octahydroacridine succinate]
- general state, autonomous activity and coordinated movement of the mice ([1]; 4, 8, 16 mg/kg once intragastric): no significant influence
- sleep number of animals with subthreshold dose of pentobarbital sodium ([1]; 4, 8 and 16 mg/kg once intragastric): no obvious influence
- LD50 [2]: 66.6 ± 3.3 mg/kg
- LD50 as multiple of the clinical daily dosage [3]: ~499.5 times
- swimming path length for reaching the platform vs model group ([4]; 1.4 mg/kg, Day 4, P<0.05): obviously shortened
- latent period for reaching the platform vs model group ([4]; 1.4 mg/kg, Day 4 to Day 6, P<0.05 or P<0.01): obviously shortened
- swimming path length for reaching the platform vs model group ([4]; 2.8 mg/kg, Day 3, P<0.05): obviously shortened
- latent period for reaching the platform vs model group ([4]; 2.8 mg/kg, Day 3 to Day 6, P<0.05 or P<0.01): obviously shortened
- orientation angle and swimming speed vs model group ([4]; 0.7, 1.4 and 2.8 mg/kg, Day 1 to Day 6): not obviously changed
- residence time in the platform quadrants, average speed, orientation angle and percentage of the swimming path length in the platform area quadrants to the total swimming path length vs model group ([4]; 0.7, 1.4 and 2.8 mg/kg, Day 7): not obviously changed
- number of rats crossing the platform within 2 minutes vs model group ([4]; 1.4 and 2.8 mg/kg, Day 7, P<0.05): obviously increased
- conversion from the peripheral type or the random type to the tendency type or the linear type in the strategy for looking for the platform ([4]; 1.4 and 2.8 mg/kg, P<0.05 or P<0.01): obviously increased
- adopted strategy for reaching the platform (the peripheral type and the random type %) [4, 5]: 75.00%
- orientation angle for reaching the platform [4, 5]: 64.44 ± 24.84 °
- speed for reaching the platform [4, 5]: 21.68 ± 6.14 cm/s
- swimming path length for reaching the platform [4, 5]: 1250.31 ± 599.61 cm
- time for reaching the platform [4, 5]: 60.40 ± 30.23 s
- adopted strategy for reaching the platform (the peripheral type and the random type %) [4, 6]: 92.50%
- orientation angle for reaching the platform [4, 6]: 63.00 ± 21.34 °
- speed for reaching the platform [4, 6]: 22.93 ± 7.28 cm/s
- swimming path length for reaching the platform [4, 6]: 1491.17 ± 529.46 cm
- time for reaching the platform [4, 6]: 75.55 ± 32.44 s
- adopted strategy for reaching the platform (the peripheral type and the random type %) [4, 7]: 87.50%
- orientation angle for reaching the platform [4, 7]: 75.34 ± 20.00 °
- speed for reaching the platform [4, 7]: 23.52 ± 5.71 cm/s
- swimming path length for reaching the platform [4, 7]: 1555.98 ± 522.10 cm
- time for reaching the platform [4, 7]: 69.25 ± 15.97 s
- adopted strategy for reaching the platform (the peripheral type and the random type %) [4, 8]: 86.00%
- orientation angle for reaching the platform [4, 8]: 52.13 ± 14.28 °
- speed for reaching the platform [4, 8]: 23.68 ± 5.10 cm/s
- swimming path length for reaching the platform [4, 8]: 1368.59 ± 636.46 cm
- time for reaching the platform [4, 8]: 55.04 ± 31.39 s
- adopted strategy for reaching the platform (the peripheral type and the random type %) [4, 9]: 65.00%
- orientation angle for reaching the platform [4, 9]: 48.91 ± 15.52 °
- speed for reaching the platform [4, 9]: 29.02 ± 6.70 cm/s
- swimming path length for reaching the platform [4, 9]: 917.85 ± 346.36 cm
- time for reaching the platform [4, 9]: 38.71 ± 18.28 s
- adopted strategy for reaching the platform (the peripheral type and the random type %) [4, 10]: 82.50%
- orientation angle for reaching the platform [4, 10]: 57.20 ± 22.99 °
- speed for reaching the platform [4, 10]: 28.32 ± 7.08 cm/s
- swimming path length for reaching the platform [4, 10]: 1025.55 ± 559.44 cm
- time for reaching the platform [4, 10]: 40.76 ± 23.88 s
- adopted strategy for reaching the platform (the peripheral type and the random type %) [4, 11]: 66.67%
- orientation angle for reaching the platform [4, 11]: 57.18 ± 14.54 °
- speed for reaching the platform [4, 11]: 26.27 ± 6.15 cm/s
- swimming path length for reaching the platform [4, 11]: 698.11 ± 448.85 cm
- time for reaching the platform [4, 11]: 29.31 ± 15.94 s
- adopted strategy for reaching the platform (the peripheral type and the random type %) [4, 12]: 65.00* %
- orientation angle for reaching the platform [4, 12]: 53.59 ± 14.56 °
- speed for reaching the platform [4, 12]: 25.25 ± 5.42 cm/s
- swimming path length for reaching the platform [4, 12]: 804.05 ± 351.90 cm
- time for reaching the platform [4, 12]: 30.21 ± 14.13 s
- adopted strategy for reaching the platform (the peripheral type and the random type %) [4, 13]: 60.00* %
- orientation angle for reaching the platform [4, 13]: 41.65 ± 17.28 °
- speed for reaching the platform [4, 13]: 24.59 ± 6.25 cm/s
- swimming path length for reaching the platform [4, 13]: 512.17 ± 265.98 cm
- time for reaching the platform [4, 13]: 21.75 ± 9.58 s
- adopted strategy for reaching the platform (the peripheral type and the random type %) [4, 14]: 69.00%
- orientation angle for reaching the platform [4, 14]: 55.89 ± 20.65 °
- speed for reaching the platform [4, 14]: 25.53 ± 8.12 cm/s
